Data taken from BindingDB's records for doi:10.7270/Q2902274 (Burnham Center For Chemical Genomics, 2010).

Biological target: Eukaryotic translation initiation factor 4H (Homo sapiens, UniProt Q15056)
Assay: eIF4H inhibition in translation initiation, SAR follow-up (AID 435011)

For `COc1cc([CH+][N-]NC(=O)c2ccc(O)cc2)ccc1OCC(=O)Nc1cccc([N+](=O)[O-])c1`, the IC50 was > 100 µM.
